Assay results reported in patent publication US7951831B2, “Use of inhibitors of soluble epoxide hydrolase to synergize activity of COX and 5-LOX inhibitors” (The Regents of the University of California, priority 2005, dated 2011).

Columns and labels:
[1] = biological target: T1, sEH (Homo sapiens, UniProt P34913); test: inhibition of soluble epoxide hydrolase; format: biochemical
T1 sequence (P34913 1-555): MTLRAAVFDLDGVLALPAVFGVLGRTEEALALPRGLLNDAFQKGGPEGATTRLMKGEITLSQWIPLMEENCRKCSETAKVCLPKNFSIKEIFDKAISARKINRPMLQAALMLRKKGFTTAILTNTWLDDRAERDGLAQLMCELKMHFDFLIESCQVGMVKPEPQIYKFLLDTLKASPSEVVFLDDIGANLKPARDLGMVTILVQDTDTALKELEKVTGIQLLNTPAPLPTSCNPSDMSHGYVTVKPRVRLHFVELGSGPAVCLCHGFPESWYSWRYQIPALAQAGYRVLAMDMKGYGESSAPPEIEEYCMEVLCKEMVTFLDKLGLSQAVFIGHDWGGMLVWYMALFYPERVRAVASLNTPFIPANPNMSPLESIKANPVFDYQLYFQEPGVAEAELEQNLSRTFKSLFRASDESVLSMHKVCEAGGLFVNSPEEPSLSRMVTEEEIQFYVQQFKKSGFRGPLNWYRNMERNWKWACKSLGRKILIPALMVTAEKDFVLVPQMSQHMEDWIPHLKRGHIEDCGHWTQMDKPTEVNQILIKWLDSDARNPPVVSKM
From the text: Any of a number of standard assays for determining epoxide hydrolase activity can be used to determine inhibition of sEH. For example, suitable assays are described in Gill, et al., Anal Biochem 131, 273-282 (1983); and Borhan, et al., Analytical Biochemistry 231, 188-200 (1995)). Suitable in vitro assays are described in Zeldin et al., J Biol. Chem. 268:6402-6407 (1993). Suitable in vivo assays are described in Zeldin et al., Arch Biochem Biophys 330:87-96 (1996). […]
The enzyme also can be detected based on the binding of specific ligands to the catalytic site which either immobilize the enzyme or label it with a probe such as dansyl, fluoracein, luciferase, green fluorescent protein or other reagent. […] The enzyme also can be detected based on the generation of fluorescent products following the hydrolysis of the epoxide. […]

[2] = metabolic stability; format: in vitro ADME
[3] = system: COX-2 / COX-1; conditions: the smaller the ratio, the more specific for COX-2; cited from earlier work
[4] = system: arachidonic acid metabolites in mouse plasma; test: plasma oxylipin metabolites in mice exposed to LPS (LC-MS/MS); format: in vivo; conditions: AUDA-BE 20 mg/Kg alone
[5] = tail flick assay, without induction of pain; format: in vivo, mice; conditions: sc in oleic oil, responses after 90 minutes; no induction of pain
Procedure: Briefly, mice are kept under 12:12 h light: dark cycle and water and food is supplied ad libitum. Mice are trained for three days to the experimental chambers in 30 min sessions each time. The next day baseline readings are taken. Vehicle control (oleic oil) is then injected sc in the next day and measurements are taken. Two days later, animals are injected through the sc route with test compounds dissolved in the oil vehicle and their responses are recorded after 90 minutes.
Tail flick and hind paw withdrawal latency tests are conducted according to D'Amour and Smith, J Pharmacol Exp Ther 72:74-9 (1941), and Woolfe and McDonald, J Pharmacol Exp Ther, 80:300-7 (1944). In tail flick assays, mice are placed in restrainers and left undisturbed for 30 minutes. Readings are then taken by placing the posterior end of the tail onto a tail flick apparatus that has a radiant heat source set to 55 C. Five measurements per animal are taken at two-minute intervals. The latency to move the tail is recorded. In hind paw withdrawal assays, the mice are placed in an experimental chamber with a glass surface. The temperature of this surface is kept constant at 30° C. After a 30-minute period of acclimation, radiant heat is applied to the plantar surface of the hind paw. Five measurements per animal are taken at two-minute intervals. The latency to move the paw is recorded. […]

[6] = system: COX-2 protein; test: Western immunoblot of COX-2 protein in livers of mice; format: in vivo; conditions: liver; LPS 10 mg/Kg i.p.; COX-2 inhibitor 50 mg/Kg or AUDA-BE 20 mg/Kg sc (FIG. 8)
Procedure: Horizontal axis: treatment administered to the mice. First column: vehicle (oleic acid, administered subcutaneously (“s.c.” or “sc”)). Second column: lipopolysaccharide (“LPS”, 10 mg/Kg i.p.) and vehicle. […] Fifth column: AUDA-BE (20 mg/Kg sc). Sixth column: AUDA-BE (20 mg/Kg sc)+LPS (10 mg/Kg i.p.). […] Vertical axis: depicts percentage of protein induced in test animals receiving designated treatment compared to that of control mice receiving vehicle without LPS.
Western immunoblot analysis was performed with proteins isolated from liver to detect cycloxygenase 2 (COX-2). The isolated proteins were separated by electrophoresis on 10% SDS-PAGE and then transferred onto polyvinylidene fluoride membranes (Immobilon P, Millipore Corp., Bedford, Mass.). […] The membranes were incubated with rabbit anti-mouse HRP-linked IgG (Amersham, Arlington Heights, Ill.) at 1:10,000 dilution, washed, then contacted with secondary antibody and visualized using SuperSignal® West Femto Maximum Sensitivity Substrate (Pierce Biotechnology, Inc., Rockford, Ill.), a chemiluminiscence detection system, per manufacturer's instructions. The immunodetectable bands were quantified by densitometry with Kodak 1.D Image Analysis System v.

CCCCCCCCCCCCNC(=O)NC12CC3CC(CC(C3)C1)C2 [ADU, N-Adamantyl-N′-dodecyl urea]
activity as an inhibitor of sEH [1]: particularly high activity | metabolic stability [2]: metabolically stable

CC(=O)Oc1ccccc1C(=O)O [Aspirin, aspirin]
COX-2 (IC50)/COX-1 (IC50) ratio [3]: 0.32

CCCCOC(=O)CCCCCCCCCCCNC(=O)NC12CC3CC(CC(C3)C1)C2 [AUDA-BE, 12-(3-adamantane-1-yl-ureido)-dodecanoic acid butyl ester]
5-HETE, percentage of metabolite compared to control mice receiving vehicle without LPS [4]: 262±21% | 6-keto-PGF1a, percentage of metabolite compared to control mice receiving vehicle without LPS [4]: 128±6% | PGE2, percentage of metabolite compared to control mice receiving vehicle without LPS [4]: 241±2% | ΣDHOME, percentage of metabolite compared to control mice receiving vehicle without LPS [4]: 141±15% | ΣEpOME, percentage of metabolite compared to control mice receiving vehicle without LPS [4]: 122±8% | analgesic effect in tail flick assay [5]: slight but significant analgesic effect | amount of COX-2 relative to control mice [6]: about 4 times
